Reference: patent US10968264B2, “Cyclic peptide tyrosine tyrosine compounds as modulators of neuropeptide Y receptors” (priority 2016, dated 2021)
Numbered stars: 1 amine (or outer) side, 2 acyl side, 3 side chain; on linkers, the order of the positions; unused ones are H or OH. Bridge positions count the residues as written; N and C are the ends. Side chains are listed from the residue outwards. Peptide text beside a SMILES is read from it. * marks the point of attachment. Argψ(CH2NH)TyrNH2 = N=C(N)NCCC[C@@H](CN[C@@H](Cc1ccc(O)cc1)C(N)=O)N*; C18 diacid = O=C(O)CCCCCCCCCCCCCCCCC(=O)*; γGlu = O=C(O)[C@H](CCC(=O)[*:2])N[*:1]; AEEA = NCCOCCOCC(=O)O

Biological target: T1, human NPY2R (Homo sapiens, UniProt P49146)
T1 construct: expressed in transfected cells; host or cells: HEK cells
T1 sequence (P49146 whole entry): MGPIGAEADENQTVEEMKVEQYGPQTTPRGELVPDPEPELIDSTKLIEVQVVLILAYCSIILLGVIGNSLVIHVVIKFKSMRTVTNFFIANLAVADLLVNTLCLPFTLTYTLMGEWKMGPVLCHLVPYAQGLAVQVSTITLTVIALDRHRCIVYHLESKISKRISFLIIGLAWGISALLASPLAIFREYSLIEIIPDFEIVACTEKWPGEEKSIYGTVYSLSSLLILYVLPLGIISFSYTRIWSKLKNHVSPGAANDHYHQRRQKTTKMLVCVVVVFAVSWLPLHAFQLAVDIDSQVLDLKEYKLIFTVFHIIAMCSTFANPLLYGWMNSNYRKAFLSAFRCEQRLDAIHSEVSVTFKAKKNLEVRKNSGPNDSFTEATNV
Test: Human NPY2R cAMP in vitro potency assay (hY2 assay), inhibition of forskolin-induced cAMP, LANCE FRET
Assay type: cell-based
Procedure: The method used to test the potency of PYY analogs in vitro was a cell based assay designed to measure inhibition of forskolin-induced cAMP produced by adenylate cyclase through modulation of the human NPY2R Gi-protein coupled receptor.
Cells were thawed from cryopreservation and added to 15 ml of cell media (DMEM/high glucose (Cellgro), 10% FBS (Hyclone), 1% Pen/Strep (Life Technologies), 1% L-Glutamine (Thermo Scientific), 1% Na Pyruvate (Thermo Scientific)). […] Supernatants in the assay plate were decanted. Dilutions of PYY analogs and controls were prepared in 1×HBSS (Cellgro), 5 mM HEPES (Cellgro), 0.1% BSA (PerkinElmer) and 0.5 mM 3-isobutyl-1-methylxanthine (Sigma), and 6 μL/well of each sample were added to designated wells. […] All samples were measured in triplicate. Data were analyzed using the Crucible in-house data analysis software, designed by Eudean Shaw. The unknown cAMP concentrations within each well were interpolated from the reference standards of known cAMP concentrations included within each plate.

[1] = Y2R EC50 (nM) SEQ ID NO: 2-39, human NPY2R transfected HEK cells, NTSC-PYY compound

| Structure (SMILES) | EC50 [1] [nM] | EC50 (Y2R EC50 (nM) SEQ ID NO: 2-39) [nM] |
| --- | --- | --- |
| CCCCCCCCCCCCCCCC(=O)N[C@@H](CCC(=O)NCCCC[C@@H]1NC(=O)[C@H](CC(N)=O)NC(=O)[C@H](CC(C)C)NC(=O)[C@H](Cc2ccc(O)cc2)NC(=O)[C@H](C)NC(=O)[C@H](CCCNC(=N)N)NC(=O)[C@H](CC(C)C)NC(=O)[C@H](CO)NC(=O)[C@H](C)NC(=O)[C@H](Cc2ccc(O)cc2)NC(=O)[C@H](Cc2ccc(O)cc2)NC(=O)[C@H](CCCNC(=N)N)NC(=O)[C@H](CC(N)=O)NC(=O)[C@H](CC(C)C)NC(=O)[C@H](CCC(=O)O)NC(=O)[C@H](CCC(=O)O)NC(=O)[C@@H]2CCCN2C(=O)[C@H](CO)NC(=O)[C@H](C)NC(=O)[C@H](CC(=O)O)NC(=O)[C@H](CCC(=O)O)NC(=O)CNC(=O)[C@@H]2CCCN2C(=O)[C@H](C)NC(=O)[C@H](CCC(=O)O)NC(=O)[C@@H]2CCCN2C(=O)[C@H](C)NC(=O)[C@H]([C@@H](C)CC)NC(=O)c2cccc(c2)CSCC[C@@H](C(=O)N[C@H](C(=O)N[C@@H](CCCNC(=N)N)C(=O)N[C@@H](CCC(N)=O)C(=O)N[C@@H](CCCNC(=N)N)C(=O)N[C@@H](Cc2ccc(O)cc2)C(N)=O)[C@@H](C)O)NC1=O)C(=O)O [SEQ ID NO: 21] | 0.49 |  |
| CC[C@H](C)[C@@H]1NC(=O)CCNC(=O)CSC[C@@H](C(=O)N[C@H](C(=O)N[C@H](C(=O)N[C@@H](CCCNC(=N)N)C(=O)N[C@@H](CCC(N)=O)C(=O)N[C@@H](CCCNC(=N)N)CN[C@@H](Cc2ccc(O)cc2)C(N)=O)[C@@H](C)O)C(C)C)NC(=O)[C@H](CC(N)=O)NC(=O)[C@H](CC(C)C)NC(=O)[C@H](Cc2ccc(O)cc2)NC(=O)[C@H](Cc2c[nH]cn2)NC(=O)[C@H](CCCNC(=N)N)NC(=O)[C@H](CC(C)C)NC(=O)[C@H](CO)NC(=O)[C@H](C)NC(=O)[C@H](Cc2ccc(O)cc2)NC(=O)[C@H](Cc2ccc(O)cc2)NC(=O)[C@H](CCCNC(=N)N)NC(=O)[C@H](CC(N)=O)NC(=O)[C@H](CC(C)C)NC(=O)[C@H](CCC(=O)O)NC(=O)[C@H](CCC(=O)O)NC(=O)[C@@H]2CCCN2C(=O)[C@H](CO)NC(=O)[C@H](C)NC(=O)[C@H](CCCCNC(=O)COCCOCCNC(=O)COCCOCCNC(=O)CC[C@H](NC(=O)CCCCCCCCCCCCCCCCC(=O)O)C(=O)O)NC(=O)[C@H](CCC(=O)O)NC(=O)CNC(=O)[C@@H]2CCCN2C(=O)[C@H](C)NC(=O)[C@H](CCC(=O)O)NC(=O)[C@@H]2CCCN2C(=O)[C@H](CCCCN)NC1=O [SEQ ID NO: 68] |  | 0.27 |
| CC[C@H](C)[C@@H]1NC(=O)CNC(=O)CC[C@@H](C(=O)N[C@H](C(=O)N[C@H](C(=O)N[C@@H](CCCNC(=N)N)C(=O)N[C@@H](CCC(N)=O)C(=O)N[C@@H](CCCNC(=N)N)CN[C@@H](Cc2ccc(O)cc2)C(N)=O)[C@@H](C)O)C(C)C)NC(=O)[C@H](CC(N)=O)NC(=O)[C@H](CC(C)C)NC(=O)[C@H](Cc2ccc(O)cc2)NC(=O)[C@H](Cc2c[nH]cn2)NC(=O)[C@H](CCCNC(=N)N)NC(=O)[C@H](CC(C)C)NC(=O)[C@H](CO)NC(=O)[C@H](C)NC(=O)[C@H](Cc2ccc(O)cc2)NC(=O)[C@H](Cc2ccc(O)cc2)NC(=O)[C@H](CCCNC(=N)N)NC(=O)[C@H](CC(N)=O)NC(=O)[C@H](CC(C)C)NC(=O)[C@H](CCC(=O)O)NC(=O)[C@H](CCC(=O)O)NC(=O)[C@@H]2CCCN2C(=O)[C@H](CO)NC(=O)[C@H](C)NC(=O)[C@H](CCCCN)NC(=O)[C@H](CCC(=O)O)NC(=O)CNC(=O)[C@@H]2CCCN2C(=O)[C@H](C)NC(=O)[C@H](CCC(=O)O)NC(=O)[C@@H]2CCCN2C(=O)[C@H](CO)NC1=O [SEQ ID NO: 70, [cyclo-(G2-E30), S4, K11, psi-(R35,Y36)]-PYY2-36] (HELM PEPTIDE1{G.I.S.P.E.A.P.G.E.K.A.S.P.E.E.L.N.R.Y.Y.A.S.L.R.H.Y.L.N.E.V.T.R.Q.[N=C(N)NCCC[C@@H](CN[C@@H](Cc1ccc(O)cc1)C(N)=O)N[*:1]]}$PEPTIDE1,PEPTIDE1,1:R1-29:R3$$$V2.0) |  | 0.02 |
| CC[C@H](C)[C@@H]1NC(=O)CNC(=O)CC[C@@H](C(=O)N[C@H](C(=O)N[C@H](C(=O)N[C@@H](CCCNC(=N)N)C(=O)N[C@@H](CCC(N)=O)C(=O)N[C@@H](CCCNC(=N)N)CN[C@@H](Cc2ccc(O)cc2)C(N)=O)[C@@H](C)O)C(C)C)NC(=O)[C@H](CC(N)=O)NC(=O)[C@H](CC(C)C)NC(=O)[C@H](Cc2ccc(O)cc2)NC(=O)[C@H](Cc2c[nH]cn2)NC(=O)[C@H](CCCNC(=N)N)NC(=O)[C@H](CC(C)C)NC(=O)[C@H](CO)NC(=O)[C@H](C)NC(=O)[C@H](Cc2ccc(O)cc2)NC(=O)[C@H](Cc2ccc(O)cc2)NC(=O)[C@H](CCCNC(=N)N)NC(=O)[C@H](CC(N)=O)NC(=O)[C@H](CC(C)C)NC(=O)[C@H](CCC(=O)O)NC(=O)[C@H](CCC(=O)O)NC(=O)[C@@H]2CCCN2C(=O)[C@H](CO)NC(=O)[C@H](C)NC(=O)[C@H](CCCCNC(=O)COCCOCCNC(=O)COCCOCCNC(=O)CC[C@H](NC(=O)CCCCCCCCCCCCCCCCC(=O)O)C(=O)O)NC(=O)[C@H](CCC(=O)O)NC(=O)CNC(=O)[C@@H]2CCCN2C(=O)[C@H](C)NC(=O)[C@H](CCC(=O)O)NC(=O)[C@@H]2CCCN2C(=O)[C@H](CO)NC1=O [SEQ ID NO: 72] (GISPEAPGEK([AEEA-AEEA-γGlu-C18 diacid])ASPEELNRYYASLRHYLNEVTRQ-{Argψ(CH2NH)TyrNH2}; lactam N-29) | 1.75 |  |
| CCCCCCCCCCCCCCCC(=O)N[C@@H](CCC(=O)NCCCC[C@@H]1NC(=O)[C@H](CC(N)=O)NC(=O)[C@H](CC(C)C)NC(=O)[C@H](Cc2ccc(O)cc2)NC(=O)[C@H](C)NC(=O)[C@H](CCCNC(=N)N)NC(=O)[C@H](CC(C)C)NC(=O)[C@H](CO)NC(=O)[C@H](C)NC(=O)[C@H](Cc2ccc(O)cc2)NC(=O)[C@H](Cc2ccc(O)cc2)NC(=O)[C@H](CCCNC(=N)N)NC(=O)[C@H](CC(N)=O)NC(=O)[C@H](CC(C)C)NC(=O)[C@H](CCC(=O)O)NC(=O)[C@H](CCC(=O)O)NC(=O)[C@@H]2CCCN2C(=O)[C@H](CO)NC(=O)[C@H](C)NC(=O)[C@H](CC(=O)O)NC(=O)[C@H](CCC(=O)O)NC(=O)CNC(=O)[C@@H]2CCCN2C(=O)[C@H](C)NC(=O)[C@H](CCC(=O)O)NC(=O)[C@@H]2CCCN2C(=O)[C@H](CCC(=O)O)NC(=O)[C@H]([C@@H](C)CC)NC(=O)c2cccc(c2)CSCC[C@@H](C(=O)N[C@H](C(=O)N[C@@H](CCCNC(=N)N)C(=O)N[C@@H](CCC(N)=O)C(=O)N[C@@H](CCCNC(=N)N)C(=O)N[C@@H](Cc2ccc(O)cc2)C(N)=O)[C@@H](C)O)NC1=O)C(=O)O [SEQ ID NO: 22] |  | 4.4 |
